Experimental data reported in paper PMC5803267, “A small molecule inhibitor of Rheb selectively targets mTORC1 signaling” (Nature Communications, 2018).

Assays:
[1] = target: T1, recombinant human mTOR (Homo sapiens, UniProt P42345); assay: Rheb-independent mTOR in vitro kinase assay (HotSpot, radiometric); type: biochemical; conditions: up to a concentration of 30 µM
T1 construct: GST (N); host or cells: insect cells

[2] = system: MCF-7 cells; assay: Protein synthesis assay (35S-methionine incorporation) in MCF-7 cells; type: cell-based, human; conditions: MCF-7, 2.5 h compound, 35S-Met label 30 min
Experimental: Data are plotted as percent decrease in forward scatter. […] Error bars represent standard deviation of the mean of duplicates; graph represents data from one of two separate experiments
Another functional correlate dependent on mTORC1 activity is protein synthesis. […] The functional effects of NR1 on cell size and protein synthesis are consistent with the observed selective inhibition of mTORC1 pathway signaling.
The protein synthesis assay was performed by incubation of MCF7 cells with compounds in MEM + 10% dialyzed FBS for 2.5 h and then incubated in labeling mix (compounds, Met- and Cys-free media, 10% dialyzed FBS, and ^35S protein labeling mix) for 30 min. Cells were lysed, proteins were precipitated, and resuspended pellets were read on a Microbeta 2.

T1 sequence (P42345 1360-2549): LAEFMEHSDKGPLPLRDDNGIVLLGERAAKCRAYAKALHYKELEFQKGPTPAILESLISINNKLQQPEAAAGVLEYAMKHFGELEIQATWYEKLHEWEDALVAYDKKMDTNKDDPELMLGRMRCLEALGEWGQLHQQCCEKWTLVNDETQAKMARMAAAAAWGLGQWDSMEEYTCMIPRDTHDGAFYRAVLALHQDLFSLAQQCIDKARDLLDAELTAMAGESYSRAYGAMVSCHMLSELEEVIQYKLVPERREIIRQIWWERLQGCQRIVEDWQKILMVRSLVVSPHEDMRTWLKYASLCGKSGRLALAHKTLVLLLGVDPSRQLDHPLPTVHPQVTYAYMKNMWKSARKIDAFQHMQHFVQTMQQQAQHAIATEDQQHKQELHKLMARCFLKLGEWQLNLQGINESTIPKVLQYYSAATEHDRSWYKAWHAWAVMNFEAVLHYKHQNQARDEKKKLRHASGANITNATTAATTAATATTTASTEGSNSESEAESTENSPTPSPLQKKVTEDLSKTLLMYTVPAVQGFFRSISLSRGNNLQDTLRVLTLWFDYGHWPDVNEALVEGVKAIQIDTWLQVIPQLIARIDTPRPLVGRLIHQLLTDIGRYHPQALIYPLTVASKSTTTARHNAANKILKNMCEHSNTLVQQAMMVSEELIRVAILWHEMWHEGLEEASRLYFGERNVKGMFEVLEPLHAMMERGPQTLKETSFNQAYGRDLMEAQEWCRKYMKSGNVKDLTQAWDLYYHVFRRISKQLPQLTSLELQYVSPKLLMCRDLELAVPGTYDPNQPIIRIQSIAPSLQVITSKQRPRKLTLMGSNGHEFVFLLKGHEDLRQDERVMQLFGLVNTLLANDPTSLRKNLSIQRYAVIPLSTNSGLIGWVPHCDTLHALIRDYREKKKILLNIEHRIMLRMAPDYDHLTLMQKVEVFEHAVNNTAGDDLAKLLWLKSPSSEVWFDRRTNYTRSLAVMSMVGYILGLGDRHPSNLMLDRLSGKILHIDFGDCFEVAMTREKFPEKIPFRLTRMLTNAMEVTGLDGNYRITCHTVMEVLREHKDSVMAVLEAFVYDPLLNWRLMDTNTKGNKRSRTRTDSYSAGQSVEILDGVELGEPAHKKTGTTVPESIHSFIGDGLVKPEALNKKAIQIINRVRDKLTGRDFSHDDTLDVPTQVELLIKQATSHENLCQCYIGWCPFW

## CN(C)C(=O)c1ccc(Cn2c(C(=O)O)cc3c(Br)cc(Sc4ccc(Cl)c(Cl)c4)cc32)cc1 [NR1, 4-bromo-6-(3,4-dichlorophenylthio)-1-(4-(dimethylcarbamoyl)benzyl)-1H-indole-2-carboxylic acid]
[1]
  inhibitory activity in HotSpot: no inhibitory activity
[2]
  protein synthesis: dose-dependently reduce protein synthesis
